From patent US20240308992A1 (Biopolar Youtang(Guangdong) Pharmaceutical Co., Ltd., priority 2021, published 2024) come the findings set out here.

In the experiment the target is T1, Drak2 (Homo sapiens, UniProt O94768).
T1 sequence (O94768 1-372): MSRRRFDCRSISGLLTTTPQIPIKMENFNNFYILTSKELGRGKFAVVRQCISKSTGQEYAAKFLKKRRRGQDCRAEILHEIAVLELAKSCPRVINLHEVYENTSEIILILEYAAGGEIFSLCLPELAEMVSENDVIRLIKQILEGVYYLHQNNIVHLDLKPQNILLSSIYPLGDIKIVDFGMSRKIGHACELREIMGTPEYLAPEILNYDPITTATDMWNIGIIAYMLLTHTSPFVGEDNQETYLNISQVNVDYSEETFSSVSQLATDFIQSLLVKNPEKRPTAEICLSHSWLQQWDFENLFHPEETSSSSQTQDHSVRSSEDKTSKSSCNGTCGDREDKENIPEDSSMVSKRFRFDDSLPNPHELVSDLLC
Briefly: Drak2 activity test, ADP-Glo kinase assay (Promega). The format is biochemical. Conditions: inhibition of Drak2 kinase activity, 2 h room temperature, activity range classes, read-out: IC50_Drak2. On the technique in general: ADP-Glo turns the ADP formed in a reaction into a luminescent signal.
On to `COc1cc(-c2cncc(-c3cc(NC(=O)CC4CC4)cs3)n2)ccc1C(=O)N1CCOCC1` [Example B31, 2-cyclopropyl-N-(5-(6-(3-methoxy-4-(morpholine-4-carbonyl)phenyl)pyrazin-2-yl)thiophen-3-yl)acetamide], for which the IC50 was 11 to 100 nM. `COc1ccc(OC)c(-c2cncc(-c3cc(NC(=O)C4CCC4)cs3)n2)c1` [Example A14, N-(5-(6-(2,5-dimethoxyphenyl)pyrazin-2-yl)thiophen-3-yl)cyclobutanecarboxamide]: the IC50 lay in the range of 1000 to 10000 nM. For `CCCCCCCCC(=O)Nc1csc(-c2cncc(-c3ccc(C(=O)Nc4nnn[nH]4)c(OC)c3)n2)c1` [Example B19, 2-methoxy-4-(6-(4-nonanamidothiophen-2-yl)pyrazin-2-yl)-N-(1H-tetrazol-5-yl)benzamide], the IC50 is greater than 10000 nM. Take `COc1ccc(-c2cncc(-c3cc(NC(=O)CC4CCCC4)cs3)n2)cc1OC` [Example A33, 2-cyclopentyl-N-(5-(6-(3,4-dimethoxyphenyl)pyrazin-2-yl)thiophen-3-yl)acetamide]: the IC50 fell in the range of 101 to 1000 nM.

Regarding `COc1cc(-c2cncc(-c3cc(NC(=O)CC4CCC4)cs3)n2)ccc1OCC(=O)N1CCOCC1` [Example 191, 2-Cyclobutyl-N-{5-[6-(3-methoxy-4-{[2-(morpholin-4-yl)-2-oxoethyl]oxy}phenyl)pyrazin-2-yl]thiophen-3-yl} acetamide], the IC50 was less than 10 nM.

As to `COc1cc(-c2cncc(-c3cc(NC(=O)C4CC45CCC5)cs3)n2)ccc1C(=O)N(C)C1CCN(C)CC1` (centres unmarked) [Example B84, N-(5-(6-(3-methoxy-4-(methyl(1-methylpiperidin-4-yl)carbamoyl)phenyl)pyrazin-2-yl)thiophen-3-yl)spiro[2.3]hexane-1-carboxamide], the IC50 fell in the range of 11 to 100 nM.

`COc1cc(-c2cncc(-c3cc(NC(=O)CC4CCC4)cs3)n2)ccc1CN1CCOCC1` [Example B35, 2-cyclobutyl-N-(5-(6-(3-methoxy-4-(morpholinomethyl)phenyl)pyrazin-2-yl)thiophen-3-yl)acetamide]: the IC50 was in the range of 101 to 1000 nM. `CCCCC(=O)Nc1csc(-c2cncc(-c3ccc(C(=O)N(C)C4CCN(C5CC5)CC4)c(OC)c3)n2)c1` [Example B69, N-(1-cyclopropylpiperidin-4-yl)-2-methoxy-N-methyl-4-(6-(4-pentanamidothiophen-2-yl)pyrazin-2-yl)benzamide]: the IC50 is less than 10 nM.

On to `CCCCC(=O)Nc1csc(-c2cncc(-c3ccc(C(=O)N(C)C4CCN(CC(F)(F)F)CC4)c(OC)c3)n2)c1` [Example B70, 2-methoxy-N-methyl-4-(6-(4-pentanamidothiophen-2-yl)pyrazin-2-yl)-N-(1-(2,2,2-trifluoroethyl)piperidin-4-yl)benzamide], for which the IC50 lay in the range of 101 to 1000 nM. To `CCCCC(=O)Nc1csc(-c2cncc(C3CCN(S(C)(=O)=O)CC3)n2)c1` [Example D7, N-(5-(6-(1-(methylsulfonyl)piperidin-4-yl)pyrazin-2-yl)thiophen-3-yl)pentanamide] belongs 1000 to 10000 nM; to `COc1ccc(-c2cncc(-c3cc(NC(=O)C(C)(C)C)cs3)n2)cc1OC` [Example A5, N-(5-(6-(3,4-dimethoxyphenyl)pyrazin-2-yl)thiophen-3-yl)pivalamide], 101 to 1000 nM; to `CCCCC(=O)Nc1csc(-c2cncc(-c3ccc(C(=O)OC)c(OC)c3)n2)c1` [Example B1, Methyl 2-methoxy-4-(6-(4-pentanamidothiophen-2-yl)pyrazin-2-yl)benzoate], 101 to 1000 nM. For the compound `CC(C)n1ncc2ccc(-c3cncc(-c4cc(NC(=O)CC5CCC5)cs4)n3)cc21` [Example 213, 2-Cyclobutyl-N-(5-{6-[1-(propyl-2-yl)indazol-6-yl]pyrazin-2-yl}thiophen-3-yl) acetamide], the IC50 fell in the range of 101 to 1000 nM. In the case of `CCCCC(=O)Nc1csc(-c2cncc(-c3ccc(C(=O)N(C)C4CC5(C4)CN(C)C5)c(OC)c3)n2)c1` [Example 199, 2-Methoxy-N-methyl-N-(2-methyl-2-azaspiro[3.3]heptane-6-yl)-4-(6-(4-pentamidothiophen-2-yl)pyrazin-2-yl) benzamide], the IC50 is 11 to 100 nM.
